“Also recorded” adds a separate entry of the source.
The molecules below were run against T1, σ receptor (Rattus norvegicus, UniProt Q9R0C9) (assay: σ receptor radio-receptor assay, inhibition of radiolabeled pentazocine binding). Details: Table IV; individual compounds, R1 varied.
T1 construct: The brains are thawed, the cerebella removed and the remaining tissue weighed; tissue Rockland (Gilbertsville, Pa.); host or cells: rat brain without cerebellum, crude particulate membranes
T1 sequence (Q9R0C9 whole entry): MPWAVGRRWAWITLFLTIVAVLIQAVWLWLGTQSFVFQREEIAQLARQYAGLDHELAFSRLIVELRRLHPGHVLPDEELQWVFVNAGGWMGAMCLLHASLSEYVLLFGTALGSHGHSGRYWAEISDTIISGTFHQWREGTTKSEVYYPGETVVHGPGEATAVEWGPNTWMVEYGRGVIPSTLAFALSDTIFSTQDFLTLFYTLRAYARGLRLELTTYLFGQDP

Question: For `COc1ccc(Cc2ccc(C3C(C(=O)NCC45CC6CC(CC(C6)C4)C5)c4ccccc4C(=O)N3CCCCCCC(N)=O)o2)cc1` (centres unmarked) [Compound 1], which IC50 is on record?
Answer: Its IC50 is 56 nM.

Question: `COc1ccc(Cc2ccc(C3C(C(=O)NCC45CC6CC(CC(C6)C4)C5)c4ccccc4C(=O)N3C[C@H](N)C(N)=O)o2)cc1` (some centres unmarked) [Compound 3] was tested. Which IC50 did it give?
Answer: The IC50 was 71 nM.

Question: Which IC50 does the source give for `COc1ccc(Cc2ccc(C3C(C(=O)NCC45CC6CC(CC(C6)C4)C5)c4ccccc4C(=O)N3C[C@H]3CC[C@H](C(N)=O)CC3)o2)cc1` (some centres unmarked) [Pool 2] here?
Answer: Its IC50 is 68 nM.

Question: `COc1ccc(Cc2ccc(C3C(C(=O)NCC45CC6CC(CC(C6)C4)C5)c4ccccc4C(=O)N3CCOCCOCC(N)=O)o2)cc1` (centres unmarked) [Pool 5] was tested. Which IC50 did it give?
Answer: The IC50 was 117 nM.

Question: With `COc1ccc(Cc2ccc(C3C(C(=O)NCC45CC6CC(CC(C6)C4)C5)c4ccccc4C(=O)N3CC(N)=O)o2)cc1` (centres unmarked) [Pool 6] as the molecule, how does the IC50 read?
Answer: Its IC50 is 124 nM.

Question: With `COc1ccc(Cc2ccc(C3C(C(=O)NCC45CC6CC(CC(C6)C4)C5)c4ccccc4C(=O)N3Cc3ccc(C(N)=O)cc3)o2)cc1` (centres unmarked) [Pool 7] as the molecule, how does the IC50 read?
Answer: The IC50 was 130 nM.

Question: How did the IC50 turn out when `COc1ccc(Cc2ccc(C3C(C(=O)NCC45CC6CC(CC(C6)C4)C5)c4ccccc4C(=O)N3CCCC[C@H](N)C(N)=O)o2)cc1` (some centres unmarked) [Pool 8] was run?
Answer: Its IC50 is 150 nM.

Question: For `COc1ccc(Cc2ccc(C3C(C(=O)NCC45CC6CC(CC(C6)C4)C5)c4ccccc4C(=O)N3CCCCC(N)=O)o2)cc1` (centres unmarked) [Pool 9], which IC50 is on record?
Answer: The IC50 was 231 nM.

Question: How did the IC50 turn out when `COc1ccc(Cc2ccc(C3C(C(=O)NCC45CC6CC(CC(C6)C4)C5)c4ccccc4C(=O)N3CCC(N)=O)o2)cc1` (centres unmarked) [Pool 10] was run?
Answer: The IC50 was 355 nM.

Same assay, conditions: in words; Example 44

Question: With `COc1ccc(Cc2ccc(C3C(C(=O)NCC45CC6CC(CC(C6)C4)C5)c4ccccc4C(=O)N3CCCCCCC(N)=O)o2)cc1` (centres unmarked) [Compound 1] as the molecule, how does the “activity in the σ receptor assay (iterative approach)” value read?
Answer: The value was “most active”.

Same assay, conditions: in words; Example 51

Question: For `COc1ccc(Cc2ccc(C3C(C(=O)NCC4CCCCC4)c4ccccc4C(=O)N3CCCCCCC(N)=O)o2)cc1` (centres unmarked), which “activity in the σ receptor screen (positional scan)” value is on record?
Answer: Its value is “most active; also recorded: virtually equal activity”.
